Experimental data taken from US20200038398A1, “COMBINATION THERAPY WITH GLUTAMINASE INHIBITORS” (Calithera Biosciences, Inc., priority 2017, published 2020).
pIC50: −log10 of the molar value. Like-named read-outs stand apart in the source and are kept apart here.

How the values were obtained:
[1] = test system: UWB1.289 ovarian cancer cell lines; assay: Combination cell viability (CellTiter-Glo), CB-839 with niraparib; format: cell-based; details: FIG. 3a; combination with PARP inhibitor niraparib, various concentrations of CB-839, 6 days
Method: (§1) Cells were treated with a dose titration of either CB-839, an anti-cancer agent, or a mixture thereof for 72 hours (for palbociclib or talazoparib) or 6 days (for niraparib) in growth media. At the end of the incubation, cell viability was measured using CellTiter-Glo as per manufacturer's protocol (Promega, Madison, Wis.). Cell proliferation for all compound treatments is represented with bar graphs, where luminescent output, Relative Light Units (RLU), correlates with viable cell number. Combination indices were calculated using CalcuSyn software (biosoft.com) and reported for individual mixtures of CB-839 and each agent.

[2] = test system: HCC827 lung cancer cell lines; assay: Combination cell viability (CellTiter-Glo), CB-839 with osimertinib; format: cell-based; details: FIG. 4a, various concentrations of CB-839, 72 hours
Method: as §1, with “agent, osimertinib alone” for “agent,”, “of CB-839 and osimertinib” for “thereof”, “hours” for “hours (for palbociclib or talazoparib) or 6 days (for niraparib)”, “relative” for “viable”, “osimertinib.” for “each agent.”

[3] = test system: H1975 lung cancer cell lines; assay: as above; format: cell-based; details: FIG. 4b, various concentrations of CB-839, 72 hours
Method: as §1, with “agent, osimertinib alone” for “agent,”, “of CB-839 and osimertinib” for “thereof”, “hours” for “hours (for palbociclib or talazoparib) or 6 days (for niraparib)”, “relative” for “viable”, “osimertinib.” for “each agent.”

[4] = test system: MCF-7 breast adenocarcinoma cells; assay: MCF-7 xenograft, CB-839 and palbociclib; format: in vivo; details: combination CB-839 200 mg/kg PO BID and palbociclib orally once daily; scid/bg mice; FIG. 2b
Method: Female scid/bg mice were implanted subcutaneously with 17B-estradiol sustained release pellets on Day −1. The following day mice were implanted subcutaneously with 5×10^6 MCF-7 breast adenocarcinoma cells mixed 1:1 with matrigel. On Day 7 post-implant, mice were randomized into groups of n=10/group to receive the following: 1) Vehicle (25% hydroxypropyl-B-cyclodextrin) orally BID; 2) CB-839 at 200 mg/kg orally BID; 3) Palbociclib at 50 mg/kg orally once daily; or 4) CB-839 at 200 mg/kg PO BID and Palbociclib orally once daily. Tumors were measured with calipers three times per week and tumor volume calculated using the formula tumor volume (mm^3)=(a×b^2/2) where ‘b’ is the smallest diameter and ‘a’ is the largest perpendicular diameter. ****P<0.0001 (ANOVA) versus both monotherapies.

[5] = test system: HCC1395 breast cancer cell lines; assay: Combination cell viability (CellTiter-Glo), CB-839 with talazoparib; format: cell-based; details: FIG. 3b; combination with PARP inhibitor talazoparib, various concentrations of CB-839, 72 hours
Method: as §1

[6] = test system: HCC1569 (breast) cancer cell lines; assay: Combination cell viability (CellTiter-Glo), CB-839 with palbociclib; format: cell-based; details: FIG. 1a; combination with CDK 4/6 inhibitor palbociclib, various concentrations of CB-839, 72 hours
Method: as §1

[7] = test system: estrogen receptor positive (ER+) breast cancer; assay: as above; format: cell-based; details: FIG. 2a; combination with CDK 4/6 inhibitor palbociclib, various concentrations of CB-839, 72 hours
Method: as §1

[8] = test system: P493-6 (myc “on”) cells; assay: Cell Proliferation Assay; format: cell-based; details: 72 hrs incubation
Method: P493-6 (myc “on”) cells were maintained in growth media (RPMI-1640, 10% FBS, 2 mM glutamine, 100 units/ml Penicillin and 100 μg/ml streptomycin) at 37° C. with 5% CO2. For compound assay, P493-6 cells were plated in 96-well V-bottom plates on the day of compound addition in 50 μl of growth media at a cell density of 200,000 cells/ml (10,000 cells/well). Compounds were serially diluted in 100% DMSO at 200-times the final concentration. Compounds were diluted 100-fold into growth media and then 50 μl of this mixture was added to cell plates making the final concentration of DMSO 0.5%. Cells were incubated with compound for 72 hrs at 37° C. with 5% CO2 and analyzed for antiproliferative effects either by Cell Titer Glo (Promega) or FACS analysis using the Viacount (Millipore) kit on the Guava instrument.

## O=C(Cc1cccc(OC(F)(F)F)c1)Nc1ccc(CCCCc2nnc(NC(=O)Cc3ccccn3)s2)nn1 [CB-839]
[1]
  synergy between CB-839 and niraparib: synergy
[2]
  synergy between CB-839 and osimertinib: synergy
[3]
  synergy between CB-839 and osimertinib: synergy
[4]
  tumor volume, P (ANOVA) versus both monotherapies: < 0.0001
[5]
  synergy between CB-839 and talazoparib: synergy
[6]
  synergy between CB-839 and palbociclib: synergy
[7]
  synergy between CB-839 and palbociclib: synergy

## [2H]C([2H])(CCc1nnc(N)s1)C([2H])([2H])c1ccc(NC(=O)Cc2cccc(OC(F)(F)F)c2)nn1 [Compound 726]
[8]; P493-6, read-out: Cell prolif P493 72h IC50
  pIC50: 6.21

## [2H]C([2H])(CCc1nnc(NC(=O)Cc2ccccn2)s1)C([2H])([2H])c1ccc(NC(=O)Cc2cccc(OC(F)(F)F)c2)nn1 [Compound 727]
[8]; read-out: Cell prolif P493 72h IC50
  pIC50: 7.92
